According to patent publication US7078225B2, “Method for enzymatically producing an optically active cyanohydrin” (Nippon Shokubai Co., Ltd., priority 2000, dated 2006):

Tested on: (R)-hydroxynitrile lyase
Assay: Effect of reaction inhibitor in the aldehyde on enzymatic synthesis of (R)-2-chloromandelonitrile (conversion by HPLC after five hours)
Type: biochemical, almond (Prunus amygdalus)
Settings: 1 M aldehyde, 1.5 M prussic acid, immobilized enzyme 600 units, t-butyl methyl ether saturated with citrate buffer pH 5.5, five hours
Description: 2-chlorobenzaldehyde containing undetectable 2-chlorobenzoic acid (reaction inhibitor) was dissolved in t-butyl methyl ether saturated with 0.15 M citrate buffer (pH 5.5) to prepare a 1 M solution of 2-chlorobenzaldehyde. To this solution, 2-chlorobenzoic acid was added in different amounts to prepare aldehyde solutions of varying 2-chlorobenzoic acid contents.
Immobilized (R)-hydroxynitrile lyase (600 units) was introduced into 5 mil of each solution, and prussic acid was then added to reach 1.5 M, followed by synthesis of (R)-2-chloromandelonitrile. Five hours after initiation of the reaction, an aliquot of the reaction mixture was sampled to measure the conversion ratio of aldehyde by HPLC.

SMILES: O=C(O)c1ccccc1Cl [2-chlorobenzoic acid]
- inhibition of the enzyme reaction (0.5 wt % 2-chlorobenzoic acid added to 2-chlorobenzaldehyde): about 30%
- inhibition of the enzyme reaction (1.1 wt % 2-chlorobenzoic acid added to 2-chlorobenzaldehyde): about 50%
